Data on 34 molecules can be found in US12011444B2, “N-substituted indole derivatives as PGE2 receptor modulators” (Idorsia Pharmaceuticals Ltd, priority 2015, dated 2024).

In assay [1] the target is EP4 (Homo sapiens (Human), UniProt P35408). In words: hEP4 cAMP assay (BT549 breast cancer cells, HTRF cAMP). It counts as cell-based. The following applies: antagonistic activity; mean values where measured multiple times. The procedure: Plate is pre-incubated 45 minutes at room temperature. Subsequently, 2.5 microliters of PGE2 (final conc. 6 nM) are transferred into the assay plate. Plate is incubated 30 minutes at room temperature.
Chain of EP4 (P35408 whole entry): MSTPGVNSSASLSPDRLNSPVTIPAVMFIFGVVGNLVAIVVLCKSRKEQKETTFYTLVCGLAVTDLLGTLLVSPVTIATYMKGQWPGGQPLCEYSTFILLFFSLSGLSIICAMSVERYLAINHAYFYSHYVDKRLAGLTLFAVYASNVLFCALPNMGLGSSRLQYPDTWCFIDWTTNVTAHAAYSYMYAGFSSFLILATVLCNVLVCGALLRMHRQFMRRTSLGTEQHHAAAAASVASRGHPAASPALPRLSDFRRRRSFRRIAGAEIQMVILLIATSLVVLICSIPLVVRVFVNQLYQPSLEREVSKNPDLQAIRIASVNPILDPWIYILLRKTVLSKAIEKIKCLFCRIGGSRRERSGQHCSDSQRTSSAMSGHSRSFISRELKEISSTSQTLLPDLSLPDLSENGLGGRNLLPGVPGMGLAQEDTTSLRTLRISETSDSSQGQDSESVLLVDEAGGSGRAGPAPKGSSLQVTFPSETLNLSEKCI

In assay [2] the target is T1, EP2 (Homo sapiens (Human), UniProt P43116). Put plainly: cell-based.
T1 sequence (P43116 whole entry): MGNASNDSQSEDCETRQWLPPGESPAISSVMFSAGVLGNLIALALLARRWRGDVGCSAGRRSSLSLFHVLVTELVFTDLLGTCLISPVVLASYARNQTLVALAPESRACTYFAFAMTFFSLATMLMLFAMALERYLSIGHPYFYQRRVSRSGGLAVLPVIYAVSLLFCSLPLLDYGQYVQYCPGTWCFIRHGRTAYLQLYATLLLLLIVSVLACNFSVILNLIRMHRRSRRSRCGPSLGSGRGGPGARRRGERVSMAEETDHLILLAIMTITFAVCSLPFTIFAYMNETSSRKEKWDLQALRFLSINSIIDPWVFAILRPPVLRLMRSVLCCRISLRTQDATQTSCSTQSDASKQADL
From the text: (§1) Human tumor cell lines expressing endogenously either EP4 or EP2 are used and cAMP accumulation in cells upon PGE2 stimulation is monitored. SF295 glioblastoma cells express high endogenous EP2 and no EP4, whereas BT549 breast cancer cells, express high endogenous EP4 levels and very low EP2 levels.
(§2) As a detection method for cAMP the HTRF (homogeneous time resolved fluorescence) Cisbio kit (HTRF cAMP dynamic 2 kit 20′000 tests Cisbio Cat. #62AM4PEC) was used, which is based on a competitive immunoassay using a Cryptate-labeled anti-cAMP antibody and d2-labeled cAMP. Native cAMP produced by cells or unlabeled cAMP (for the standard curve) compete with exogenously added d2-labeled cAMP (acceptor) for binding to monoclonal anti-cAMP-Eu3+Cryptate (donor). A FRET signal (Fluorescence Resonance Energy Transfer) is obtained only if the labeled anti-cAMP antibody binds the d2 labelled cAMP, thus the specific signal (i.e. energy transfer) is inversely proportional to the concentration of cAMP in the standard or sample.
(§3) The SF295 cells (NCI/No. 0503170) are detached from culture dishes with a cell dissociation buffer (Invitrogen, 13151-014), and collected in growing medium (GM: RPM11640 (Invitrogen 21875)/10% FCS, 1% Penicilin/streptomycin). Cells are counted washed and resuspended in assay buffer (AB; HBSS, 20 mM HEPES, 0.2% BSA; 2 mM IBMX). 4,000 cells in 5 μl of AB are seeded per well of a small volume 384 well plate (black with flat bottom, Greiner 784076).
(§4) PGE2 (Cayman 14010, stock solution: 75 μM in DMSO) is used as agonist at 75 nM final concentration, corresponding to EC80.
(§5) Two point five microliters of diluted compounds are transferred into the assay plate. Plate is pre-incubated 45 minutes at room temperature. Subsequently, 2.5 microliters of PGE2 (final conc. 75 nM) are transferred into the assay plate. Plate is incubated 30 minutes at room temperature. Five μl of each donor (anti-cAMP cryptate) and acceptor (cAMP-d2) are added and the plate is incubated another hour at room temperature in the dark and then read using a BMG LABTECH PHERAstar reader (Excitation: 337 nm, Emission: 620 and 665 nm).
(§6) The obtained Delta F (fluorescence) values (665 nm/620 nM) are converted into % cAMP values using the measurements of the cAMP calibrator provided in the kit. For each compound concentration the percentage of cAMP compared to DMSO control value as average±STDEV (each concentration is measured in duplicate) is calculated.
(§7) IC50 values and curves are generated with XLfit software (IDBS) using Dose-Response One Site model 203. When compounds were measured multiple times, mean values are given.
The target of assay [3] is T1, EP2.
From the text: as §1, §2, §3, §4, §5, §6, §7

pIC50: −log10 of the molar value. Like-named read-outs stand apart in the source and are kept apart here.

Consider `CCOc1cc(-c2cc(NCC(C)n3c(C)cc4c(OC)ccc(F)c43)ncn2)ccc1C(=O)O` (racemic) [Example 794, rac-2-Ethoxy-4-{6-[2-(7-fluoro-4-methoxy-2-methyl-indol-1-yl)-propylamino]-pyrimidin-4-yl}-benzoic acid], for which the figures for the pIC50 in assay [1] and in assay [2] were 6.10 and 6.51, respectively.
As to `COc1ccc(F)c2c1cc(C)n2C(C)CNc1cc(-c2ccc(C(=O)O)c(CC(C)C)c2)ncn1` (racemic) [Example 795, rac-4-{6-[2-(7-Fluoro-4-methoxy-2-methyl-indol-1-yl)-propylamino]-pyrimidin-4-yl}-2-isobutyl-benzoic acid], the pIC50 (commonly the IC50 on a negative log10 scale, so that one unit is a factor of ten) in assay [1] is 6.51; in assay [2] it was 7.07.
For `COc1cccc2c1cc(C)n2CCNc1cc(-c2ccc3c(c2)C(CC(C)C)NC3=O)ncn1` (racemic) [compound 461], the results for the pIC50 in assay [1] and in assay [2] were 6.65 and 7.62, respectively.
For `CCCC1NC(=O)c2ccc(-c3cc(NCCn4c(C)cc5c(OC)ccc(F)c54)ncn3)cc21` (racemic) [compound 465], in that order: 7.12 and 7.77.
For `Cc1ccc(F)c2c1cc(C)n2CCNc1cc(-c2ccc3c(c2)C(CC(C)C)NC3=O)ncn1` (racemic) [compound 468], in that order: 6.58 and 7.23.
For `COc1ccc(F)c2c1cc(C)n2CCNc1cc(-c2ccc3c(c2)C(CC(C)C)NC3=O)ncn1` (racemic) [compound 474], the values for the pIC50 in assay [1] and in assay [2] were 6.65 and 7.66, respectively.
For `CCOc1cc(-c2cc(NCCn3c(C)cc4c(OC)ccc(F)c43)ncn2)ccc1C(O)C(F)(F)F` (racemic) [compound 571], in that order: 6.29 and 6.83.
Regarding `COc1ccc(F)c2c1cc(C)n2CCNc1cc(-c2ccc(-c3cc(C)no3)cc2)ncn1` [compound 716, [2-(7-Fluoro-4-methoxy-2-methyl-indol-1-yl)-ethyl]-{6-[4-(3-methyl-isoxazol-5-yl)-phenyl]-pyrimidin-4-yl}-amine], the pIC50 in assay [1] is 6.29; in assay [3] it was 7.92.
Turning to `COc1cc(F)c(F)c2c1cc(C)n2CCNc1cc(-c2ccc(-c3cc(C)no3)cc2)ncn1` [compound 717], the pIC50 in assay [1] is 6.28; in assay [3], 6.62.
For `Cc1cnoc1-c1ccc(-c2cc(NCCn3c(C)cc4c(C)cc(F)c(F)c43)ncn2)cc1` [compound 719], in that order: 6.41 and 6.65.
Regarding `COc1cccc2c1cc(C)n2CCNc1cc(-c2cc(Cl)c(C(=O)O)c(OCC(F)(F)F)c2)ncn1` [compound 720], the figures for the pIC50 in assay [1] and in assay [3] were 6.82 and 8.00, respectively.
Taken in the same sequence, the figures for `COc1cc(F)cc2c1cc(C)n2CCNc1cc(-c2cc(Cl)c(C(=O)O)c(OCC(F)(F)F)c2)ncn1` [compound 721] were 7.22 and 7.74.
Taken in the same sequence, the figures for `COc1cc(F)c(F)c2c1cc(C)n2CCNc1cc(-c2cc(Cl)c(C(=O)O)c(OCC(F)(F)F)c2)ncn1` [compound 722] were 7.10 and 7.49.
For `Cc1cc(F)cc2c1cc(C)n2CCNc1cc(-c2cc(Cl)c(C(=O)O)c(OCC(F)(F)F)c2)ncn1` [compound 723], in that order: 6.54 and 7.43.
On to `Cc1cc(F)c(F)c2c1cc(C)n2CCNc1cc(-c2cc(Cl)c(C(=O)O)c(OCC(F)(F)F)c2)ncn1` [compound 724], for which the pIC50 in assay [1] was 6.69; in assay [3], 7.24.
Turning to `COc1ccc(F)c2c1cc(C)n2CCNc1cc(-c2cc(Cl)c(C(=O)O)c(OCC(F)(F)F)c2)ncn1` [compound 725], the pIC50 in assay [1] is 7.24; in assay [3], 8.22.
For `COc1cc(F)cc2c1cc(C)n2CCNc1cc(-c2cccc(-n3cccn3)c2)ncn1` [compound 726], in that order: 6.41 and 7.39.
Consider `COc1cc(F)cc2c1cc(C)n2CCNc1cc(-c2ccc(-c3ccccn3)cc2)ncn1` [compound 727], for which the pIC50 is 6.62 in assay [1] and 7.47 in assay [3].
Taken in the same sequence, the figures for `COc1cc(F)cc2c1cc(C)n2CCNc1cc(-c2ccc3ccncc3c2)ncn1` [compound 728] were 6.96 and 7.44.
Taken in the same sequence, the figures for `Cc1cc(F)cc2c1cc(C)n2CCNc1cc(-c2ccc(-c3ccccn3)cc2)ncn1` [compound 730] were 6.31 and 7.52.
Taken in the same sequence, the figures for `Cc1cc(F)cc2c1cc(C)n2CCNc1cc(-c2ccc3ccncc3c2)ncn1` [compound 731] were 6.56 and 7.44.
Regarding `Cc1cc(F)cc2c1cc(C)n2CCNc1cc(-c2ccc3ncccc3c2)ncn1` [compound 732], the pIC50 was 6.47 in assay [1] and 7.39 in assay [3].
As to `Cc1cc(F)cc2c1cc(C)n2CCNc1cc(-c2ccc3nccnc3c2)ncn1` [compound 733], the figures for the pIC50 in assay [1] and in assay [3] were 6.09 and 7.06, respectively.
For `Cc1cnoc1-c1ccc(-c2cc(NCCn3c(C)cc4c(C)cc(F)cc43)ncn2)cc1` [compound 734], in that order: 6.33 and 7.02.
For `Cc1cnoc1-c1ccc(-c2cc(NCCn3c(C)cc4c(C)ccc(F)c43)ncn2)cc1` [compound 735], in that order: 6.21 and 7.03.
Taken in the same sequence, the figures for `COc1cc(F)cc2c1cc(C)n2CCNc1cc(-c2ccc(-c3oncc3C)cc2)ncn1` [compound 736, [2-(6-Fluoro-4-methoxy-2-methyl-indol-1-yl)-ethyl]-{6-[4-(4-methyl-isoxazol-5-yl)-phenyl]-pyrimidin-4-yl}-amine] were 6.40 and 7.41.
For `COc1ccc(F)c2c1cc(C)n2CCNc1cc(-c2ccc(-c3oncc3C)cc2)ncn1` [compound 737, [2-(7-Fluoro-4-methoxy-2-methyl-indol-1-yl)-ethyl]-{6-[4-(4-methyl-isoxazol-5-yl)-phenyl]-pyrimidin-4-yl}-amine], the pIC50 in assay [1] is 6.81; in assay [3] it was 7.60.
For `COc1cc(F)c(F)c2c1cc(C)n2CCNc1cc(-c2ccc(-c3oncc3C)cc2)ncn1` [compound 738], in that order: 6.75 and 7.20.
For `Cc1ccc(F)c2c1cc(C)n2CCNc1cc(-c2ccc3nn[nH]c3c2)ncn1` [compound 739, [6-(3H-Benzotriazol-5-yl)-pyrimidin-4-yl]-[2-(7-fluoro-2,4-dimethyl-indol-1-yl)-ethyl]-amine], in that order: 6.35 and 7.37.
For `Cc1ccc(F)c2c1cc(C)n2CCNc1cc(-c2ccc3c(c2)OCCO3)ncn1` [compound 740], in that order: 6.18 and 6.74.
As to `Cc1ccc(F)c2c1cc(C)n2CCNc1cc(-c2ccc(-n3cncn3)cc2)ncn1` [compound 741, [2-(7-Fluoro-2,4-dimethyl-indol-1-yl)-ethyl]-[6-(4-[1,2,4]triazol-1-yl-phenyl)-pyrimidin-4-yl]-amine], the pIC50 in assay [1] is 6.30; in assay [3], 7.43.
For `COc1cc(F)cc2c1cc(C)n2CCNc1cc(-c2ccc(-c3ccno3)cc2)ncn1` [compound 743, [2-(6-Fluoro-4-methoxy-2-methyl-indol-1-yl)-ethyl]-[6-(4-isoxazol-5-yl-phenyl)-pyrimidin-4-yl]-amine], in that order: 6.50 and 8.00.
For `COc1ccc(F)c2c1cc(C)n2CCNc1cc(-c2ccc(-c3ccno3)cc2)ncn1` [compound 744, [2-(7-Fluoro-4-methoxy-2-methyl-indol-1-yl)-ethyl]-[6-(4-isoxazol-5-yl-phenyl)-pyrimidin-4-yl]-amine], in that order: 6.60 and 8.10.
Taken in the same sequence, the figures for `COc1cc(F)c(F)c2c1cc(C)n2CCNc1cc(-c2ccc(-c3ccno3)cc2)ncn1` [compound 745, [2-(6,7-Difluoro-4-methoxy-2-methyl-indol-1-yl)-ethyl]-[6-(4-isoxazol-5-yl-phenyl)-pyrimidin-4-yl]-amine] were 6.08 and 7.60.
